# Where a name gives a salt, the structure may show the parent alone.
# Molecular target: T1, MMP1 (collagenase 1) (Homo sapiens, UniProt P03956)
# T1 construct: made in house; host or cells: mouse C127 cells, vector pBPV-MMT, secreted into culture medium
# T1 sequence (P03956 100-469): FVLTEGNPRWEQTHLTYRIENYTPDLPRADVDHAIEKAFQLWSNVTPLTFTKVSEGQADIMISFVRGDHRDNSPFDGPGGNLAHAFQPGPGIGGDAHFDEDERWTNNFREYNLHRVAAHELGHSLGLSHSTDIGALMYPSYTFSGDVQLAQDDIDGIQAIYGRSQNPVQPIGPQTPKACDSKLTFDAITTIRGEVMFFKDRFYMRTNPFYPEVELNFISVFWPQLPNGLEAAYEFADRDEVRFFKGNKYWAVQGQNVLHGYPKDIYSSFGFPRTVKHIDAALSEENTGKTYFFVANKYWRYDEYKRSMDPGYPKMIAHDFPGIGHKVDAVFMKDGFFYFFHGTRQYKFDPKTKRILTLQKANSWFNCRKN
# Test: MMP1 (collagenase 1) fluorogenic substrate inhibition assay
# Assay type: biochemical
# Settings: mean ± SEM of three independent experiments
# Procedure: The inhibitory activities of compounds of formula I on MT1-MMP, MMP1 (collagenase 1) and MMP2 (gelatinase A) can be determined as follows:
# Stock solutions of substrate (MCA-Pro-Leu-Gly-Leu-Dpa-Ala-Arg-NH2 (SEQ ID NO: 1), C. G. Knight, et al, FEBS lett., 296, 263-266, (1992)), are prepared in 100% DMSO at a concentration 1.0 mM.
# Stock solutions of inhibitors are prepared in 100% DMSO. The inhibitor is diluted into the assays from a solution in 100% DMSO, and controls substitute an equal volume of DMSO so that the final DMSO concentration from inhibitor and substrate dilutions in all assays is 6.0%. Assays are performed in assay buffer (150 mM NaCl, 10 mM CaCl2, 50 mM Tris-Cl pH7.5, 0.05% Brij-35) containing 6.0% DMSO once the substrate and inhibitor are diluted into it. […] The fluorescence changes are monitored using an excitation wavelength of 320 nm and an emission wavelength of 340 nm. […] The reaction mixture is preincubated with the inhibitor for 30 min, the reaction is started by the addition of MMP enzyme and the fluorescence intensity is measured for 10 min. […]
# C127 cells (ATCC-mouse mammary tumor cell line) are grown in Dulbecco's Modified Essential Medium supplemented with 10% heat inactivated fetal bovine serum and 1× antibiotic-antimycotic solution at 37° C. in a humidified CO2 incubator. […] Media from selected clones are analyzed for collagenase expression by an enzymatic assay. […]
smiles,measurement,value
"CN(C)c1ccc(CN(CC(=O)NO)S(=O)(=O)c2ccc(OCC3CC3)cc2)cc1 [Example 2, 2-[(4-Cyclopropylmethoxy-benzenesulfonyl)-(4-dimethylamino-benzyl-amino]-N-hydroxy-acetamide HCl salt]",IC50,1.77 ± 0.144 µM
